Experimental data as given in US8569267B2, “Tetracyclic tetrahydrofuran derivatives containing cyclic amine side chain” (Janssen Pharmaceutica, NV, priority 2005, dated 2013).
Where two headings read alike, the source gives them in different places.

Columns and labels:
[1] = molecular target: T1, human cloned 5-HT2A receptor, expressed in L929 cells (Homo sapiens, UniProt P28223); assay: In vitro binding affinity for 5-HT2A receptor ([125I]R91150 radioligand binding)
T1 construct: expressed in transfected cells; host or cells: L929 cells
How it was run: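 Competition radioligand binding to human cloned 5-HT2A receptor expressed in L929 cells, using [125I]R91150 with test compound at various concentrations. At equilibrium, receptor-bound radioactivity was separated from free and counted. Affinity reflects inhibition of radioligand binding.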

[2] = molecular target: T2, human Dopamine D2L receptor (Homo sapiens, UniProt P14416); assay: In vitro binding affinity for human D2L receptor ([3H]Spiperone binding); conditions: human D2L receptor-transfected CHO cell membranes; for IC50: read-out: D2L pIC50 (converted)
T2 construct: expressed in transfected cells; host or cells: CHO cells
How it was run: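 Competition curves were expressed as percent specific binding, measured by scintillation counting after filtration onto GF/B filters and ice-cold Tris washes. Test compounds competed with [3H]Spiperone, added from a 2 nmol/L dilution, for 30 min at 37° C on transfected CHO membranes in pH 7.7 Tris-HCl salt buffer. Butaclamol at 10^−6 mol/l final marked non-specific binding.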

[3] = molecular target: T3, human cloned 5-HT2C receptor, expressed in CHO cells (Homo sapiens, UniProt P28335); assay: In vitro binding affinity for 5-HT2C receptor ([3H]mesulergine radioligand binding); conditions: human cloned 5-HT2C receptor; for IC50: read-out: 5-HT2C pIC50 (converted)
T3 construct: expressed in transfected cells; host or cells: CHO cells
T3 sequence (P28335 33-458): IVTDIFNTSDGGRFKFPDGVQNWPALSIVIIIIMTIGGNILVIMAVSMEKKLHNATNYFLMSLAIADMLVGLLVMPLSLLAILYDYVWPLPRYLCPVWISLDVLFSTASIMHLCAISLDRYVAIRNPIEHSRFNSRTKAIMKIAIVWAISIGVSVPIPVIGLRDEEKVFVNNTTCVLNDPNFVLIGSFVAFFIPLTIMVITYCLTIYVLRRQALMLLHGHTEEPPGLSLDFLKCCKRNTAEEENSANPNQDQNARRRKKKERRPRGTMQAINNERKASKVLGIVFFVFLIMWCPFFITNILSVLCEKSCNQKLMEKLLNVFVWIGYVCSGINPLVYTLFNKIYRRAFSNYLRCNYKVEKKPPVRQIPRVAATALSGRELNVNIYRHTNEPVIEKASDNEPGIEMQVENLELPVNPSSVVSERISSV
How it was run: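 Receptor-bound radioligand counted after separation from unbound label once equilibrium is reached. Test compound added across a concentration range to tissue preparation plus radioligand; inhibition of binding reflects affinity and concentration.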

[4] = molecular target: T4, NET (norepinephrine transporter) (Rattus norvegicus, UniProt Q63380); assay: In vitro determination of NET reuptake inhibition ([3H]Nixosetine binding, rat brain cortex); conditions: rat brain cortex; for IC50: read-out: NET pIC50 (converted)
T4 construct: Cortex from rat brain was collected and homogenised; from tissue; host or cells: rat brain cortex
How it was run: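 Competition curves and percentage specific binding came from scintillation counting of filter-trapped radioactivity. The membranes were rat cortical homogenate in pH 7.4 Tris buffer with 120 mM NaCl and 5 mM KCl. Test compounds competed with [3H]nisoxetine for binding.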

[5] = human cloned 5-HT2A receptor in L929 cells, [125I]R91150, read-out: 5-HT2A pIC50 (converted)
[6] = human cloned 5-HT2A receptor in L929 cells, [125I]R91150

T2 sequence (P14416 whole entry): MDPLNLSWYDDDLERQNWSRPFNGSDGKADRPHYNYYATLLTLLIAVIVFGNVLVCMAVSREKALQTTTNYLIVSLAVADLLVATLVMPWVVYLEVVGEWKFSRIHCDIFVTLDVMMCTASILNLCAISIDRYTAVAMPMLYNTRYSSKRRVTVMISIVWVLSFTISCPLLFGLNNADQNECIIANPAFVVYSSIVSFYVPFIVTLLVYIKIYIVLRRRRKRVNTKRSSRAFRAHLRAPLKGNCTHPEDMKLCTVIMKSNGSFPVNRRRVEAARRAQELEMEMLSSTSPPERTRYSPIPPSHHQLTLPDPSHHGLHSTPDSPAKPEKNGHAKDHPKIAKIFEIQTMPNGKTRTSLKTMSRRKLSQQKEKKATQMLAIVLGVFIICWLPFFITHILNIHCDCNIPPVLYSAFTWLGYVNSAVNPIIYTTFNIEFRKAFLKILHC
T4 sequence (Q63380 1-617): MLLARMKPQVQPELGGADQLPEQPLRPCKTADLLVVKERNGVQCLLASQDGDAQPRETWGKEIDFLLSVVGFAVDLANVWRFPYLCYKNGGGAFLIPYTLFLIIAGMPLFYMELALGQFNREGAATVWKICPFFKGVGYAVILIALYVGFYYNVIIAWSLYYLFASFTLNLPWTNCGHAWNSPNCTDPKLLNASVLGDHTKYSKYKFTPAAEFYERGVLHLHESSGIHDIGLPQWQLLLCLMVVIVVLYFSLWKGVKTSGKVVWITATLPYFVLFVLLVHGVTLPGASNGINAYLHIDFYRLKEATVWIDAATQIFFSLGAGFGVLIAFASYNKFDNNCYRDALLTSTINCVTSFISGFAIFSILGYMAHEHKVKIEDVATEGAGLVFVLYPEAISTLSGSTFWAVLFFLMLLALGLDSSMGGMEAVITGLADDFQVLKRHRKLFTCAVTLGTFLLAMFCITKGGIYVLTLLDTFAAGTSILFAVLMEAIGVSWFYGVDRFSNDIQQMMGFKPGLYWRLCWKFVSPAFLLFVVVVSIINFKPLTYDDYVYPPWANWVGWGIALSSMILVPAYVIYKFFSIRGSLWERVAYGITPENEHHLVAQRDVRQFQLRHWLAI
T1 sequence (P28223 whole entry): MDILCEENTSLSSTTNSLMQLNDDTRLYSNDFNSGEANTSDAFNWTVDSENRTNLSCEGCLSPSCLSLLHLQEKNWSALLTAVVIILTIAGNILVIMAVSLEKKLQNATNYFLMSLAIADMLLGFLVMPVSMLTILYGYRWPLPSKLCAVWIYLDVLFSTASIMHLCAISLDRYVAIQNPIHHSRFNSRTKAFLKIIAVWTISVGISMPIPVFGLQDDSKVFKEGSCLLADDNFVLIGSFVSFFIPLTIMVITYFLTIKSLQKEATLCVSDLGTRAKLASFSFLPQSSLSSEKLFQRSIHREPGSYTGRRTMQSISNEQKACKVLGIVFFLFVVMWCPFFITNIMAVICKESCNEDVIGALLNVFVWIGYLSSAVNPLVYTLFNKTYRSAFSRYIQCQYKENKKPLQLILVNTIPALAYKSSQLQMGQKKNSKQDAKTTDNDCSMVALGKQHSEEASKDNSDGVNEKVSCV

Structure (SMILES) | IC50 [1, 5] [nM] | IC50 [2] [nM] | IC50 [3] [nM] | IC50 [4] [nM] | 5-HT2A pIC50 [1, 6] | D2L pIC50 [2] | 5-HT2C pIC50 [3] | NET pIC50 [4] | IC50 [1] [nM]
CCOC(=O)C1CCCCN1C(=O)C1CCN(CC2CC3c4ccccc4Cc4ccc(F)cc4C3O2)CC1 (mixture of isomers) [Compound 205] | < 10 | 12.6 | 4.47 | 8510 | – | – | – | – | –
CC(=O)C1(c2ccccc2)CCN(C(=O)C2CCN(CC3CC4c5ccccc5Cc5ccc(F)cc5C4O3)CC2)CC1 (centres unmarked) [Compound 209] | 4.68 | 31.6 | 12 | 5250 | – | – | – | – | –
Fc1ccc2c(c1)[C@@H]1O[C@@H](CN3CCN(c4cccc(C(F)(F)F)n4)CC3)C[C@@H]1c1ccccc1C2 [Compound 119] | 10.2 | 158 | 51.3 | 4070 | – | – | – | – | –
Cc1ccc(OC2CCN(CC3CC4c5ccccc5Cc5ccc(F)cc5C4O3)C2)cc1 (centres unmarked) [Compound 28] | 18.6 | 7.59 | 1.78 | > 10000 | – | – | – | – | –
CCCCCC(=Cc1ccccc1)CN1CCN(CC2CC3c4ccccc4Cc4ccc(F)cc4C3O2)CC1 (centres unmarked) [Compound 50] | 34.7 | 70.8 | 105 | 2140 | – | – | – | – | –
O=C(Nc1ccc(F)c(Cl)c1)C1CCN(CC2CC3c4ccccc4Cc4ccc(F)cc4C3O2)CC1 (centres unmarked) [Compound 190] | < 10 | 47.9 | 2.75 | > 10000 | – | – | – | – | –
O=[N+]([O-])c1ccc(CN2CCN(CC3CC4c5ccccc5Cc5ccc(F)cc5C4O3)CC2)cc1 (centres unmarked) [Compound 73] | 20.4 | 18.6 | 46.8 | 3630 | – | – | – | – | –
Fc1ccc2c(c1)C1OC(CN3CCC(Oc4ccccc4F)C3)CC1c1ccccc1C2 (mixture of isomers) [Compound 34] | 7.24 | 10 | 0.427 | 6170 | – | – | – | – | –
OC(COc1ccc(Cl)cc1)CN1CCN(C[C@H]2C[C@@H]3c4ccccc4Cc4ccc(F)cc4[C@@H]3O2)CC1 (some centres unmarked) [Compound 56] | 6.03 | 26.3 | 10.2 | 5620 | – | – | – | – | –
OCCC1CCN(C[C@H]2C[C@@H]3c4ccccc4Cc4ccc(F)cc4[C@@H]3O2)CC1 [Compound 154] | 0.912 | 1.35 | 1.62 | > 10000 | – | – | – | – | –
OC(COc1ccc(F)cc1)CN1CCN(CC2CC3c4ccccc4Cc4ccc(F)cc4C3O2)CC1 (mixture of isomers) [Compound 57] | 7.24 | 18.6 | 17.8 | > 10000 | – | – | – | – | –
CCCCCCCCCCNC(=O)C1CCN(C[C@H]2C[C@@H]3c4ccccc4Cc4ccc(F)cc4[C@@H]3O2)CC1 [Compound 178] | < 10 | 50.1 | 9.33 | > 10000 | – | – | – | – | –
OC1CCN(C[C@@H]2C[C@@H]3c4ccccc4Sc4ccc(F)cc4[C@H]3O2)C1 (relative stereo) [Compound 43] | < 10 | 57.5 | 1.29 | 1700 | – | – | – | – | –
O=C(O)C(=O)O.OC1CCN(CC2CC3c4ccccc4Oc4ccc(Cl)cc4C3O2)CC1 (centres unmarked) [Compound 285] | – | – | – | – | 8.56 | 7.49 | 7.76 | <5 | –
CCCCNC(=O)N1CCN(CC2CC3c4ccccc4Cc4ccc(F)cc4C3O2)CC1 (centres unmarked) [Compound 89] | 2.82 | 38.9 | 6.61 | > 10000 | – | – | – | – | –
COC(=O)c1ccc(CN2CCN(CC3CC4c5ccccc5Cc5ccc(F)cc5C4O3)CC2)cc1 (centres unmarked) [Compound 72] | 30.9 | 26.9 | 60.3 | 1170 | – | – | – | – | –
COc1ccc(CNC(=O)N2CCN(CC3CC4c5ccccc5Cc5ccc(F)cc5C4O3)CC2)c(OC)c1 (centres unmarked) [Compound 96] | 16.2 | 8.91 | 6.76 | > 10000 | – | – | – | – | –
Fc1ccc2c(c1)C1OC(CN3CCN(Cc4ccoc4)CC3)CC1c1ccccc1C2.O=C(O)C(F)(F)F (stereo not drawn) [Compound 61, [2R-(2α, 3aα, 12bβ)]1-(11-fluoro-3,3a,8,12b-tetrahydro-2H-1-oxa-dibenzo[e,h]-azulen-2-ylmethyl)-4-furan-3-ylmethyl-piperazine.trifluoroacetate (1:1)] | – | – | – | – | 8.03 | 8.09 | 7.66 | 5.88 | –

Structure (SMILES) | IC50 [1, 5] [nM] | IC50 [2] [nM] | IC50 [3] [nM] | IC50 [4] [nM] | 5-HT2A pIC50 [1, 6] | D2L pIC50 [2] | 5-HT2C pIC50 [3] | NET pIC50 [4] | IC50 [1] [nM]
O=C(C1CCN(CC2CC3c4ccccc4Cc4ccc(F)cc4C3O2)CC1)N1CCC1 (centres unmarked) [Compound 200] | < 10 | 15.5 | 8.13 | > 10000 | – | – | – | – | –
O=C(NC1CCCCC1)C1CCN(CC2CC3c4ccccc4Cc4ccc(F)cc4C3O2)CC1 (centres unmarked) [Compound 188] | < 10 | 9.77 | 2.75 | > 10000 | – | – | – | – | –
O=C(NC1CC1)C1CCN(CC2CC3c4ccccc4Cc4ccc(F)cc4C3O2)CC1 (centres unmarked) [Compound 187] | 0.427 | 18.2 | 1.15 | > 10000 | – | – | – | – | –
O=C(CCN1CCN(CC2CC3c4ccccc4Cc4ccc(F)cc4C3O2)CC1)c1ccc(F)cc1 (centres unmarked) [Compound 52] | 3.39 | 1.2 | 2.88 | 490 | – | – | – | – | –
C=CS(=O)(=O)N1CCN(CC2CC3c4ccccc4Cc4ccc(F)cc4C3O2)CC1 (centres unmarked) [Compound 104] | 8.32 | 30.9 | 28.2 | > 10000 | – | – | – | – | –
N#Cc1ccc(C(=O)NC2CCN(CC3CC4c5ccccc5Cc5ccc(F)cc5C4O3)CC2)cc1 (centres unmarked) [Compound 236] | 1.51 | 6.76 | 9.55 | > 10000 | – | – | – | – | –
CC(=O)OCCN1[C@H](C)CN(C[C@H]2C[C@@H]3c4ccccc4Cc4ccc(F)cc4[C@@H]3O2)C[C@@H]1C.O=C(O)C(=O)O [Compound 281] | – | – | – | – | 8.39 | 7.74 | 7.87 | <5 | –
O=C(Cc1ccccc1)OC1CCN(CC2CC3c4ccccc4Cc4ccc(F)cc4C3O2)C1 (mixture of isomers) [Compound 18] | – | 10.2 | 3.63 | 1780 | – | – | – | – | 6.03
COc1ccccc1OC1CCN(CC2CC3c4ccccc4Cc4ccc(F)cc4C3O2)C1 (mixture of isomers) [Compound 32] | 2.19 | 7.41 | 0.912 | 7410 | – | – | – | – | –
O=C(NC1CC1)N1CCN(CC2CC3c4ccccc4Cc4ccc(F)cc4C3O2)CC1 (stereo not drawn) [Compound 94, [2R-(2α, 3aα, 12bβ)]4-(11-fluoro-3,3a,8,12b-tetrahydro-2H-1-oxa-dibenzo[e,h]-azulen-2-ylmethyl)-piperazine-1-carboxylic acid cyclopropylamide.oxalate (1:1)] | 0.389 | 35.5 | 2.19 | 10700 | – | – | – | – | –
CCOC(=O)CNC(=O)N1CCN(CC2CC3c4ccccc4Cc4ccc(F)cc4C3O2)CC1 (centres unmarked) [Compound 92] | 2.57 | 43.7 | 15.5 | > 10000 | – | – | – | – | –
Fc1ccc(OCC2CCN(CC3CC4c5ccccc5Cc5ccc(F)cc5C4O3)C2)cc1 (centres unmarked) [Compound 26] | 5.13 | 3.63 | 5.62 | > 10000 | – | – | – | – | –
O=C(Nc1ccc(F)cc1)OCC1CCN(CC2CC3c4ccccc4Cc4ccc(F)cc4C3O2)C1 (centres unmarked) [Compound 23] | 2.95 | 5.62 | 3.8 | 3800 | – | – | – | – | –
N#CCCC1CCN(CC2CC3c4ccccc4Cc4ccc(F)cc4C3O2)CC1 (centres unmarked) [Compound 170] | 1.82 | 1.51 | 2.63 | 4270 | – | – | – | – | –
O=C(NC1CCCCCCC1)N1CCN(C[C@H]2C[C@@H]3c4ccccc4Cc4ccc(F)cc4[C@@H]3O2)CC1 [Compound 98] | 3.39 | 42.7 | 19.5 | 9550 | – | – | – | – | –
O=C(OC1CCN(CC2CC3c4ccccc4Cc4ccc(F)cc4C3O2)C1)C1CC1 (mixture of isomers) [Compound 13] | 0.912 | 3.47 | 1.12 | 5010 | – | – | – | – | –
N#CC1=CCN(C[C@H]2C[C@@H]3c4ccccc4Cc4ccc(F)cc4[C@@H]3O2)CC1.O=C(O)C(F)(F)F [Compound 270] | – | – | – | – | 7.18 | 6.67 | 7.45 | 5.78 | –
